What was measured:
[1] = tested on: SOCE (store operated calcium entry) in CHO cells; test: Assay of SOCE (store operated calcium entry)-inhibiting action; assay type: cell-based, Chinese hamster; conditions: CHO cells, thapsigargin; for inhibition at 10 µM / inhibition at 30 µM / inhibition at 100 µM: Cricetulus griseus, CHO, read-out: SOCE level (percentage of inhibition)
Procedure, shortened: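 CHO cells in calcium-free BSS received compound, then 1 μM thapsigargin 2 min later to deplete stores; after 9 min, 2 mM calcium chloride (final) added. Percent inhibition of the rise in intracellular calcium determined at various compound concentrations.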

[2] = tested on: IICR (IP3 induced calcium release) in CHO cells; test: Assay of IICR (IP3 induced calcium release)-inhibiting action; assay type: cell-based, Chinese hamster; conditions: CHO cells, 10 μM ATP; for inhibition at 10 µM / inhibition at 30 µM / inhibition at 100 µM: Cricetulus griseus, CHO, read-out: IICR level (percentage of inhibition)
Procedure, shortened: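 Inhibition (%) of the intracellular calcium increase triggered by 10 μM ATP, measured in CHO cells in BSS with calcium. Compound given 1 min after the buffer exchange and 2 min before ATP; values reported per compound concentration.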

Row | Compound | inhibition at 10 µM ([1]; test compound 10 μmol) [%] | inhibition at 30 µM ([1]; test compound 30 μmol) [%] | inhibition at 100 µM ([1]; test compound 100 μmol) [%] | inhibition at 10 µM ([2]; test compound 10 μmol) [%] | inhibition at 30 µM ([2]; test compound 30 μmol) [%] | inhibition at 100 µM ([2]; test compound 100 μmol) [%] | SOCE level (percentage of inhibition) ([1]; test compound 10 μmol) [%] | SOCE level (percentage of inhibition) ([1]; test compound 30 μmol) [%] | SOCE level (percentage of inhibition) ([1]; test compound 100 μmol) [%] | IICR level (percentage of inhibition) ([2]; test compound 10 μmol) [%] | IICR level (percentage of inhibition) ([2]; test compound 30 μmol) [%] | IICR level (percentage of inhibition) ([2]; test compound 100 μmol) [%]
1 | O=C(CCNC(CO)Cc1ccccc1)c1ccc(Br)s1 (centres unmarked) [Example 357, 2-(N-hydroxy-1-benzylethyl)aminoethyl-5-bromo-2-thienylketone] | 0 | 9 | 47 | 0 | 0 | 70 | – | – | – | – | – | –
2 | O=C(CCNCCc1ccccc1)c1ccsc1 [Example 223, 2-(N-phenethyl)aminoethyl-3-thiophenylketone] | 0 | 10 | 20 | 0 | 0 | 0 | – | – | – | – | – | –
3 | O=C(CCN1CCN(C(=O)c2ccco2)CC1)c1ccc(Oc2ccccc2)cc1 [Example 115, 2-(N-furoylpiperazyl)aminoethyl-4-phenoxyphenylketone] | 0 | 0 | 30 | 20 | 20 | 20 | – | – | – | – | – | –
4 | CCCCN(CCO)CCC(=O)c1nc(C)cs1 [Example 264, 2-(N-butyl-2-hydroxyethyl)aminoethyl-4-methyl-2-thiazolylketone] | 0 | 0 | 10 | 0 | 0 | 70 | – | – | – | – | – | –
5 | NCCCCN(CCCN)CCC(=O)c1ccc(Br)s1 [Example 344, 2-(N-4-aminobutyl-N-3-aminopropyl)aminoethyl-5-bromo-2-thienylketone] | 0 | 2 | 6 | 10 | 40 | 30 | – | – | – | – | – | –
6 | CC(C)N(CCC(=O)c1ccsc1)Cc1ccccc1 [Example 222, 2-(N-isopropylbenzyl)aminoethyl-3-thiophenylketone] | 0 | 0 | 10 | 0 | 30 | 80 | – | – | – | – | – | –
7 | O=C(CCNCCCCNCCCNCCC(=O)c1ccncc1)c1ccncc1 [Example 216, N,N-bis(4-pyrizoylethyl)spermidine] | 0 | 10 | 10 | 0 | 0 | 30 | – | – | – | – | – | –
8 | CC(C)N(CCC(=O)c1ccc(I)s1)Cc1ccccc1 [Example 390, 2-(N-isopropyl-N-benzyl)aminoethyl-5-iodo-2-thienylketone] | 20 | 40 | 50 | 0 | 0 | 70 | – | – | – | – | – | –
9 | Cc1ccc(C(=O)CCNCCO)s1 [Example 306, 2-(N-hydroxyethyl)aminoethyl-5-methyl-2-thienylketone] | 10 | 20 | 30 | 50 | 20 | 30 | – | – | – | – | – | –
10 | O=C(CCNC(CO)c1ccccc1)c1ccc(Br)s1 (centres unmarked) [Example 342, 2-(N-1-phenyl-2-hydroxyethyl)aminoethyl-5-bromo-2-thienylketone] | 0 | 0 | 34 | 0 | 20 | 40 | – | – | – | – | – | –
11 | CC(C)(C)N(CCC(=O)c1ccc(Cc2ccccc2)cc1)Cc1ccccc1 [Example 105, 2-(N-t-butylbenzyl)aminoethyl-4-benzylphenylketone] | 0 | 20 | 40 | 40 | 70 | 90 | – | – | – | – | – | –
12 | CN(CCC(=O)c1ccc2ccccc2c1)Cc1ccccc1 [Example 71, 2-(N-methylbenzyl)aminoethyl naphthylketone] | 0 | 0 | – | 0 | – | – | – | – | – | – | – | –
13 | CC(C)(C)N(CCO)CCC(=O)c1ccc(Br)s1 [Example 332, 2-(N-hydroxyethyl-t-butyl)aminoethyl-5-bromo-2-thienylketone] | – | – | – | – | – | – | 0 | 10 | 20 | 0 | 10 | 50
14 | O=C(CCNCCO)c1ccco1 [Example 275, 2-(N-2-hydroxyethyl)aminoethyl-2-furylketone] | – | 0 | 0 | 30 | 30 | 30 | – | – | – | – | – | –
15 | CC(C)N(CCC(=O)c1ccc(-c2ccccc2)cc1)Cc1ccccc1 [Example 297, 2-(N-isopropylbenzyl)aminoethyl-4-biphenylketone] | 20 | 50 | 60 | 50 | 50 | 90 | – | – | – | – | – | –
16 | CC(C)N(CCO)CCCC(=O)c1ccccc1 [Example 207, 3-(N-hydroxyethylisopropyl)aminopropylphenylketone] | – | – | – | – | – | – | 0 | 0 | 30 | 20 | 20 | 20
17 | O=C(CCNCCO)c1ccc(Br)s1 [Example 358, 2-(N-hydroxyethyl)aminoethyl-5-bromo-2-thienylketone] | – | – | – | – | – | – | 0 | 4 | 23 | 0 | 0 | 70
18 | CCCCN(CCC(=O)c1ccc(Br)s1)c1ccccc1 [Example 337, 2-(N-phenyl-N-n-butyl)aminoethyl-5-bromo-2-thienylketone] | 20 | 30 | 40 | 50 | 20 | 0 | – | – | – | – | – | –
19 | NCCSSCCN(CCC(=O)c1ccc(Cl)s1)CCC(=O)c1ccc(Cl)s1 [Example 366, N,N-bis(2-(5-chloro-2-thiophenoyl)ethyl)cystamine] | 6 | 0 | 90 | 0 | 0 | 70 | – | – | – | – | – | –
20 | COC(=O)C(CSC)NCCC(=O)c1ccc(Br)s1 (centres unmarked) [Example 409, N,N-bis(2-(5-bromo-2-thiophenoyl)ethyl)cystinemethylester] | 20 | 40 | 50 | 26 | 76 | 81 | – | – | – | – | – | –
21 | CC(C)N(CCC(=O)c1ccc(Oc2ccccc2)cc1)Cc1ccccc1 [Example 85, 2-(N-isopropylbenzyl)aminoethyl-4-phenoxyphenylketone] | 10 | 20 | 30 | 50 | 50 | 95 | – | – | – | – | – | –
22 | CCCCN(CCO)CCC(=O)c1cnccn1 [Example 108, 2-(N-butyl-2-hydroxyethyl)aminoethyl-2-pyrazinylketone] | 0 | 0 | 0 | 0 | 10 | 80 | – | – | – | – | – | –
23 | CCCCN(CCO)CCC(=O)c1ccncc1 [Example 51, 2-(N-hydroxyethylbutyl)aminoethyl-4-pyridylketone] | 0 | 0 | 0 | 0 | 20 | 100 | – | – | – | – | – | –
24 | CC(C)N(CCO)CCC(=O)n1ccnc1 [Example 199, 2-(N-isopropylhydroxyethyl)aminoethyl-1-imidazolylketone] | 0 | 0 | 0 | 10 | 20 | 0 | – | – | – | – | – | –
25 | CCN(CCC(=O)c1ccc(F)cc1)Cc1ccccc1 [Example 313, 2-(N-benzylethyl)aminoethyl-4-fluoro-phenylketone] | 0 | 0 | 30 | 20 | 20 | 30 | – | – | – | – | – | –
26 | O=C(CCN(CCO)c1ccccc1)c1ccco1 [Example 132, 2-(N-phenylhydroxyethyl)aminoethyl-2-furylketone] | 0 | 0 | 0 | 10 | 20 | 20 | – | – | – | – | – | –
27 | CC(CN(CCO)C(C)C)C(=O)c1ccc(F)cc1 (centres unmarked) [Example 157, 1-methyl-2-(N-hydroxyethylisopropyl)aminoethyl-4-fluorophenylketone] | 0 | 0 | 0 | 0 | 0 | 0 | – | – | – | – | – | –
